Experimental data from the Biogen ADME set (Fang et al. 2023).
Converted amounts (≈) assume the structure as drawn.

Settings: for aqueous solubility: pH 6.8

COc1cccc(-c2nc(C(=O)O)cs2)c1OC
MDR1-MDCK efflux ratio: 0.916 | intrinsic clearance, human liver microsomes: ≤ 4.74 mL/min/kg | intrinsic clearance, rat liver microsomes: ≤ 10.7 mL/min/kg | aqueous solubility: 37.7 µg/mL (≈ 142 µM)

COCC1CCN(c2noc(-c3cccs3)n2)CC1
MDR1-MDCK efflux ratio: 0.541 | intrinsic clearance, human liver microsomes: 39.6 mL/min/kg | intrinsic clearance, rat liver microsomes: 325 mL/min/kg | aqueous solubility: 12.9 µg/mL (≈ 46.1 µM)

Cc1cccc(-c2cccc(C(=O)NCCC3(O)CCCC3)c2)n1
MDR1-MDCK efflux ratio: 2.77 | intrinsic clearance, human liver microsomes: 21.6 mL/min/kg | intrinsic clearance, rat liver microsomes: 2910 mL/min/kg

Cc1ccc2[nH]c(CNC(=O)c3ncoc3C)nc2c1C
MDR1-MDCK efflux ratio: 2.39 | intrinsic clearance, human liver microsomes: 13.6 mL/min/kg | intrinsic clearance, rat liver microsomes: 244 mL/min/kg

Clc1cnc(Oc2ccc3cn[nH]c3c2)nc1
intrinsic clearance, human liver microsomes: 12.9 mL/min/kg | intrinsic clearance, rat liver microsomes: 27.5 mL/min/kg

COc1cccc(CNC(=O)C2(C#N)CCOCC2)c1
intrinsic clearance, human liver microsomes: ≤ 4.74 mL/min/kg | intrinsic clearance, rat liver microsomes: 75.9 mL/min/kg

Cc1noc(C)c1C(=O)N1CCCN(c2ccc(F)cc2)CC1
MDR1-MDCK efflux ratio: 1.8 | intrinsic clearance, human liver microsomes: 111 mL/min/kg | intrinsic clearance, rat liver microsomes: 566 mL/min/kg | aqueous solubility: 55.6 µg/mL (≈ 175 µM)

CC(C)Oc1cccc(C(C)NC(=O)c2ccnc(-n3cncn3)c2)c1 (stereo not given)
MDR1-MDCK efflux ratio: 1.81 | intrinsic clearance, human liver microsomes: 70.8 mL/min/kg | intrinsic clearance, rat liver microsomes: 258 mL/min/kg

Cc1cc(NCC2(c3ccncc3)CC2)ncn1
MDR1-MDCK efflux ratio: 2.49 | intrinsic clearance, human liver microsomes: ≤ 4.74 mL/min/kg | intrinsic clearance, rat liver microsomes: 198 mL/min/kg

Clc1ccc(NCc2ccoc2)nn1
MDR1-MDCK efflux ratio: 0.594 | intrinsic clearance, human liver microsomes: ≤ 4.74 mL/min/kg | intrinsic clearance, rat liver microsomes: ≤ 10.7 mL/min/kg | aqueous solubility: 21.5 µg/mL (≈ 102 µM)

O=C(/C=C/c1ccc(Cl)cc1)N1CCC2(CC1)CN(Cc1ccc(Cl)c(Cl)c1)C(=O)O2
MDR1-MDCK efflux ratio: 2.5 | intrinsic clearance, human liver microsomes: 22.8 mL/min/kg | intrinsic clearance, rat liver microsomes: 474 mL/min/kg | aqueous solubility: 2.15 µg/mL (≈ 4.48 µM)

Cn1ccc2c(NC(=O)N3CCCN(C(=O)Oc4ccccc4)CC3)cccc21
intrinsic clearance, human liver microsomes: 41.8 mL/min/kg | intrinsic clearance, rat liver microsomes: 777 mL/min/kg | aqueous solubility: 71.9 µg/mL (≈ 183 µM)

CC(=O)N1CCCN(C(=O)Cc2csc(C(C)C)n2)CC1
MDR1-MDCK efflux ratio: 20.4 | intrinsic clearance, human liver microsomes: ≤ 4.74 mL/min/kg | intrinsic clearance, rat liver microsomes: 33.4 mL/min/kg | aqueous solubility: 55.1 µg/mL (≈ 178 µM)

Cc1nc(N2CCNCC2)c2cnn(C)c2n1
MDR1-MDCK efflux ratio: 15.3 | intrinsic clearance, human liver microsomes: ≤ 4.74 mL/min/kg | intrinsic clearance, rat liver microsomes: 15.1 mL/min/kg

CN(C)C(=O)C1(Cc2ccccc2-c2ccccc2)CCN(C(=O)C2CCCO2)CC1 (stereo not given)
MDR1-MDCK efflux ratio: 17.3 | fraction unbound, human plasma: 0.0799 | fraction unbound, rat plasma: 0.184 | intrinsic clearance, human liver microsomes: 395 mL/min/kg | intrinsic clearance, rat liver microsomes: 2390 mL/min/kg | aqueous solubility: 84.1 µg/mL (≈ 200 µM)

Cc1cn2cc(C(=O)N(C)CCO)cc(N[C@@H]3CCOc4cccc(C)c43)c2n1
MDR1-MDCK efflux ratio: 73.4 | intrinsic clearance, human liver microsomes: 83.6 mL/min/kg | intrinsic clearance, rat liver microsomes: 288 mL/min/kg

CN1CCNc2nc3ccccc3nc21
MDR1-MDCK efflux ratio: 0.671 | intrinsic clearance, human liver microsomes: 74 mL/min/kg | intrinsic clearance, rat liver microsomes: 143 mL/min/kg

O=c1cc2c(n[nH]1)-c1cnc(N3CCCC3)nc1CC2
MDR1-MDCK efflux ratio: 0.748 | intrinsic clearance, human liver microsomes: 6.66 mL/min/kg | intrinsic clearance, rat liver microsomes: 103 mL/min/kg

O=C(NC1CCCCC1)C1=CCN(C(=O)C2CC2)C1
MDR1-MDCK efflux ratio: 2.4 | intrinsic clearance, human liver microsomes: ≤ 4.74 mL/min/kg | intrinsic clearance, rat liver microsomes: 29.8 mL/min/kg

Cc1ccc(S(=O)(=O)Cc2nc(-c3ccc(C(=O)NCc4cccnc4)cc3)oc2C)cc1
MDR1-MDCK efflux ratio: 56.4 | aqueous solubility: 0.33 µg/mL (≈ 0.715 µM)

N#Cc1cccc(-c2ccc(=O)n3c2[C@@H]2C[C@@H](CN(Cc4cccs4)C2)C3)c1
MDR1-MDCK efflux ratio: 7.04 | intrinsic clearance, human liver microsomes: 396 mL/min/kg | intrinsic clearance, rat liver microsomes: 2000 mL/min/kg | aqueous solubility: 48.9 µg/mL (≈ 126 µM)

O=C(Nc1ccn(-c2ncccc2Cl)n1)c1csnn1
aqueous solubility: 28.5 µg/mL (≈ 92.9 µM)

c1ccc(-c2nc(CSc3ccc(-n4cccn4)nn3)cs2)cc1
MDR1-MDCK efflux ratio: 0.541 | intrinsic clearance, human liver microsomes: 75.1 mL/min/kg | intrinsic clearance, rat liver microsomes: 420 mL/min/kg

Cc1ccc(-n2cc[nH]c(=O)c2=O)cc1
MDR1-MDCK efflux ratio: 1.05 | intrinsic clearance, human liver microsomes: ≤ 4.74 mL/min/kg | intrinsic clearance, rat liver microsomes: ≤ 10.7 mL/min/kg | aqueous solubility: 42.9 µg/mL (≈ 212 µM)

NCC1CCCC1NC(=O)c1cc(N2CCNC2=O)ccc1F (stereo not given)
MDR1-MDCK efflux ratio: 1.92 | fraction unbound, human plasma: 0.75 | intrinsic clearance, human liver microsomes: ≤ 4.74 mL/min/kg

CS(=O)(=O)NCc1cc2n(n1)CCN(C1Cc3ccccc3C1)C2
MDR1-MDCK efflux ratio: 2.92 | intrinsic clearance, human liver microsomes: ≤ 4.74 mL/min/kg | intrinsic clearance, rat liver microsomes: 27.7 mL/min/kg

Cc1cc(N2CCN(CC3CCN(C(=O)CC(C)C)CC3)CC2)n[nH]1
MDR1-MDCK efflux ratio: 9.48 | intrinsic clearance, human liver microsomes: 7.34 mL/min/kg | intrinsic clearance, rat liver microsomes: ≤ 10.7 mL/min/kg

CC(=O)N1CCN(c2c(Cl)cccc2NC(=O)COc2ccccc2Cl)CC1
fraction unbound, human plasma: 0.0181 | intrinsic clearance, human liver microsomes: 430 mL/min/kg | intrinsic clearance, rat liver microsomes: 3580 mL/min/kg | aqueous solubility: 19.5 µg/mL (≈ 46.2 µM)

CC(C)c1nnc(CN(C(C)C)C2CCOCC2)o1
MDR1-MDCK efflux ratio: 0.93 | intrinsic clearance, human liver microsomes: 6.75 mL/min/kg | intrinsic clearance, rat liver microsomes: 220 mL/min/kg

O=C(COc1ccc2oc3c(c2c1)CCCC3)N1CCOCC1
intrinsic clearance, human liver microsomes: 31 mL/min/kg | intrinsic clearance, rat liver microsomes: 2980 mL/min/kg | aqueous solubility: 43 µg/mL (≈ 136 µM)

CN1CCC(C(=O)N2CCC(c3cc(C(F)(F)F)c4c(n3)CCNC4=O)CC2)CC1
MDR1-MDCK efflux ratio: 5.17 | intrinsic clearance, human liver microsomes: ≤ 4.74 mL/min/kg | intrinsic clearance, rat liver microsomes: 11 mL/min/kg | aqueous solubility: 52.3 µg/mL (≈ 123 µM)

COc1ccc(-c2nnc3nn(C)c(=O)n3c2-c2ccc(OC)cc2)cc1
MDR1-MDCK efflux ratio: 0.904 | aqueous solubility: 0.25 µg/mL (≈ 0.688 µM)

CCOC(C)C(=O)N1CCC(n2c(=O)[nH]c3ccccc32)CC1 (stereo not given)
intrinsic clearance, human liver microsomes: ≤ 4.74 mL/min/kg | intrinsic clearance, rat liver microsomes: 75.8 mL/min/kg | aqueous solubility: 64.7 µg/mL (≈ 204 µM)

CC(C)c1nnc(CN2CCN(c3ccccc3Cl)CC2)o1
MDR1-MDCK efflux ratio: 0.652 | intrinsic clearance, human liver microsomes: 91 mL/min/kg | intrinsic clearance, rat liver microsomes: 869 mL/min/kg | aqueous solubility: 50.7 µg/mL (≈ 158 µM)

Cc1ccc2occ(CN3C[C@H]4CCCN4C[C@H]3C)c(=O)c2c1
MDR1-MDCK efflux ratio: 0.849 | intrinsic clearance, human liver microsomes: 24 mL/min/kg | intrinsic clearance, rat liver microsomes: 956 mL/min/kg

O=C(c1ccccc1)N1CCN(C(=O)c2ccc(-c3ccccc3Cl)o2)CC1
MDR1-MDCK efflux ratio: 0.683 | intrinsic clearance, human liver microsomes: 126 mL/min/kg | intrinsic clearance, rat liver microsomes: 445 mL/min/kg | aqueous solubility: 34.9 µg/mL (≈ 88.4 µM)

CS(=O)(=O)N1CCc2cc(C(=O)NCCOc3ccc4ccccc4c3)ccc21
MDR1-MDCK efflux ratio: 1.68 | aqueous solubility: 0.44 µg/mL (≈ 1.07 µM)

CC(C)n1cc(-c2ccc3c(c2)N(C)CC3)c2c(NS(=O)(=O)c3ccn(C)n3)ccnc21
MDR1-MDCK efflux ratio: 2.48 | intrinsic clearance, human liver microsomes: 69.5 mL/min/kg | intrinsic clearance, rat liver microsomes: 115 mL/min/kg | aqueous solubility: 19.4 µg/mL (≈ 43.1 µM)

Cc1ccc(CN(C)c2ncnc3c2cnn3C)o1
MDR1-MDCK efflux ratio: 0.657 | intrinsic clearance, human liver microsomes: 19.2 mL/min/kg | intrinsic clearance, rat liver microsomes: 223 mL/min/kg | aqueous solubility: 40.9 µg/mL (≈ 159 µM)

Cc1c(Cl)cccc1NC(=O)C(C)N1CCCN(c2nccs2)CC1 (stereo not given)
MDR1-MDCK efflux ratio: 0.958 | intrinsic clearance, human liver microsomes: 928 mL/min/kg | intrinsic clearance, rat liver microsomes: 4390 mL/min/kg | aqueous solubility: 48.2 µg/mL (≈ 127 µM)

Cc1nc(CCN2C(=O)NC(C)(C)C2=O)cs1
MDR1-MDCK efflux ratio: 4.61 | intrinsic clearance, human liver microsomes: ≤ 4.74 mL/min/kg | intrinsic clearance, rat liver microsomes: 21.7 mL/min/kg | aqueous solubility: 31.9 µg/mL (≈ 126 µM)

Cc1nc(O)cc(C2CN(C3CCCCC3)C2)n1
MDR1-MDCK efflux ratio: 16.5 | intrinsic clearance, human liver microsomes: ≤ 4.74 mL/min/kg | intrinsic clearance, rat liver microsomes: ≤ 10.7 mL/min/kg | aqueous solubility: 41.4 µg/mL (≈ 167 µM)

CCN(CCOC)C(=O)Nc1ccc2occc(=O)c2c1
MDR1-MDCK efflux ratio: 1.32 | intrinsic clearance, human liver microsomes: 9.83 mL/min/kg | intrinsic clearance, rat liver microsomes: 32.7 mL/min/kg

CN(Cc1ccc2c(c1)OCO2)Cc1ccccc1C#N
MDR1-MDCK efflux ratio: 0.351 | intrinsic clearance, human liver microsomes: 87.8 mL/min/kg | intrinsic clearance, rat liver microsomes: 4100 mL/min/kg | aqueous solubility: 28.1 µg/mL (≈ 100 µM)

Cc1ccc(S(=O)(=O)Nc2ccc3c(c2)c2c(n3S(=O)(=O)c3ccc(C)cc3)CCC2)cc1
intrinsic clearance, human liver microsomes: 230 mL/min/kg | intrinsic clearance, rat liver microsomes: 1490 mL/min/kg

Clc1cc2ncc(-n3ccnc3)nc2cc1Cl
MDR1-MDCK efflux ratio: 0.485 | intrinsic clearance, human liver microsomes: 16.8 mL/min/kg | intrinsic clearance, rat liver microsomes: 134 mL/min/kg | aqueous solubility: 2.96 µg/mL (≈ 11.2 µM)

O=C(c1ccc(NS(=O)(=O)c2cccc3cnccc23)cc1)N1CCCC1
MDR1-MDCK efflux ratio: 79.1 | intrinsic clearance, human liver microsomes: 26.7 mL/min/kg | intrinsic clearance, rat liver microsomes: 562 mL/min/kg

O=C(CN1CCCC1=O)N1CCc2nc3sccc3c(=O)n2CC1
intrinsic clearance, human liver microsomes: ≤ 4.74 mL/min/kg | intrinsic clearance, rat liver microsomes: ≤ 10.7 mL/min/kg

Cn1cc(NC(=O)c2csc(Cc3ccccc3)n2)cn1
intrinsic clearance, human liver microsomes: 23.7 mL/min/kg | intrinsic clearance, rat liver microsomes: 64.8 mL/min/kg | aqueous solubility: 34.5 µg/mL (≈ 116 µM)

Cc1cc(-c2cnn(CCNC(=O)c3sc(C)nc3C)c2C2CC2)on1
MDR1-MDCK efflux ratio: 5.26 | intrinsic clearance, human liver microsomes: 23.8 mL/min/kg | intrinsic clearance, rat liver microsomes: 123 mL/min/kg | aqueous solubility: 67.1 µg/mL (≈ 181 µM)

COc1cccc(CN2CCc3nc(-c4cnccn4)nc(O)c3C2)c1
intrinsic clearance, human liver microsomes: ≤ 4.74 mL/min/kg | intrinsic clearance, rat liver microsomes: 26.6 mL/min/kg

O=C(CN1C(=O)CCC1=O)Nc1ccc(F)c(F)c1F
aqueous solubility: 50 µg/mL (≈ 175 µM)

CC(C)(C)OC(=O)N1CCCC1C(=O)N1CCC(C(=O)N[C@@H](Cc2c[nH]c3ccccc23)C(=O)O)CC1 (stereo not given in full)
fraction unbound, human plasma: 0.492 | fraction unbound, rat plasma: 0.696 | intrinsic clearance, human liver microsomes: ≤ 4.74 mL/min/kg

CC(C)(C)Nc1cc(NCC2CCOCC2)c2ncc(-c3ccc(C(=O)NC4CC4)cc3)n2n1
MDR1-MDCK efflux ratio: 7.52 | aqueous solubility: 0.4 µg/mL (≈ 0.865 µM)

N#Cc1ccc(CCC(=O)Nc2ccncc2)cc1
MDR1-MDCK efflux ratio: 1.39 | intrinsic clearance, human liver microsomes: ≤ 4.74 mL/min/kg | intrinsic clearance, rat liver microsomes: 60.3 mL/min/kg | aqueous solubility: 37.9 µg/mL (≈ 151 µM)

CN(CC1(CO)CCC1)C(=O)CCN1CCCCC1=O
MDR1-MDCK efflux ratio: 23.2 | intrinsic clearance, human liver microsomes: ≤ 4.74 mL/min/kg | intrinsic clearance, rat liver microsomes: 46 mL/min/kg

Cc1ccc(F)cc1NC(=O)c1cnc2onc(C(C)C)c2c1
MDR1-MDCK efflux ratio: 0.649 | intrinsic clearance, human liver microsomes: 29.3 mL/min/kg | intrinsic clearance, rat liver microsomes: 217 mL/min/kg | aqueous solubility: 42.4 µg/mL (≈ 135 µM)

CC(C)[C@H](O)C(=O)N[C@@H](C)C(=O)N[C@@H]1C(=O)N(C)CCc2ccccc21
intrinsic clearance, human liver microsomes: 6.33 mL/min/kg | intrinsic clearance, rat liver microsomes: 14.2 mL/min/kg
